The values that follow come from ChEMBL document CHEMBL1157485, “Studies on the structure-activity relationship of bicifadine analogs as monoamine transporter inhibitors” (Bioorg Med Chem Lett, 2008).

Calls of active or inactive are those of the source. The calls are words filed in the database; no cut-off is given here.

Data set [1] addresses Sodium-dependent dopamine transporter (Rattus norvegicus, UniProt P23977). Briefly: Inhibition of dopamine uptake at cloned DAT in rat brain synaptosome. Format: tissue-based.
Data set [2] concerns the target Sodium-dependent serotonin transporter (Rattus norvegicus, UniProt P31652). Briefly: Inhibition of serotonin uptake at SERT in rat brain synaptosome. The data set is classed as tissue-based.
For the next data set, the target named is Transporter (Rattus norvegicus, UniProt Q63380). Briefly: Inhibition of norepinephrine uptake at NET in rat brain synaptosome. Format: tissue-based.
For data set [3], the system named is Mus musculus. In words: Antinociceptive activity in formalin-treated mouse model of persistent pain assessed as reduction in number of hind paws flinches at 30 mg/kg. Format: functional. Also noted: scale not given: the % may be the effect or the level left.
Data set [4] can be described thus: Efflux ratio in human CaCo2 cells. The data set is classed as ADME, cell-based. Particulars: Caco-2.
Data set [5] is described as follows: Apparent permeability across human CaCo2 cells. Format: ADME, cell-based. Conditions: Caco-2. (Caco-2 monolayers are a common model of the intestinal barrier.)
In data set [6] the test system is Mus musculus. In words: Antinociceptive activity in formalin-treated mouse model of persistent pain assessed as reduction in licking time at 60 mg/kg. Format: functional.

Sodium-dependent dopamine transporter, sequence (P23977 whole entry): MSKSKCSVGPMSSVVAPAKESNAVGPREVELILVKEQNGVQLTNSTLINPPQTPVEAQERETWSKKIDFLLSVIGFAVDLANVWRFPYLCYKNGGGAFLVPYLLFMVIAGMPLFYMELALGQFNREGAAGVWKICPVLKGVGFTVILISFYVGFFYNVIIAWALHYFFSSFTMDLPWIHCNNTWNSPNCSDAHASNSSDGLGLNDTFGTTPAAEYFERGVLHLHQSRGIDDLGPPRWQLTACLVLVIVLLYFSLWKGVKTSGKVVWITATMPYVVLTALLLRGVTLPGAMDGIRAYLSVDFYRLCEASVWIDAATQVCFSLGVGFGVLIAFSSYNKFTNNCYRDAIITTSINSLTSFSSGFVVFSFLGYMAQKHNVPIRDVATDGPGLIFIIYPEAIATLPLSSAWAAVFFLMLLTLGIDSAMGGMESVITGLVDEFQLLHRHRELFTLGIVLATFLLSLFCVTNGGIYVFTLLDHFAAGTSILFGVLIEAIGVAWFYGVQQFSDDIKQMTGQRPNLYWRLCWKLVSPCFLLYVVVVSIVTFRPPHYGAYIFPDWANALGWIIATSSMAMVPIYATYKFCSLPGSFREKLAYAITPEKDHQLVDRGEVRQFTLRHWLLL
Sodium-dependent serotonin transporter, sequence (P31652 whole entry): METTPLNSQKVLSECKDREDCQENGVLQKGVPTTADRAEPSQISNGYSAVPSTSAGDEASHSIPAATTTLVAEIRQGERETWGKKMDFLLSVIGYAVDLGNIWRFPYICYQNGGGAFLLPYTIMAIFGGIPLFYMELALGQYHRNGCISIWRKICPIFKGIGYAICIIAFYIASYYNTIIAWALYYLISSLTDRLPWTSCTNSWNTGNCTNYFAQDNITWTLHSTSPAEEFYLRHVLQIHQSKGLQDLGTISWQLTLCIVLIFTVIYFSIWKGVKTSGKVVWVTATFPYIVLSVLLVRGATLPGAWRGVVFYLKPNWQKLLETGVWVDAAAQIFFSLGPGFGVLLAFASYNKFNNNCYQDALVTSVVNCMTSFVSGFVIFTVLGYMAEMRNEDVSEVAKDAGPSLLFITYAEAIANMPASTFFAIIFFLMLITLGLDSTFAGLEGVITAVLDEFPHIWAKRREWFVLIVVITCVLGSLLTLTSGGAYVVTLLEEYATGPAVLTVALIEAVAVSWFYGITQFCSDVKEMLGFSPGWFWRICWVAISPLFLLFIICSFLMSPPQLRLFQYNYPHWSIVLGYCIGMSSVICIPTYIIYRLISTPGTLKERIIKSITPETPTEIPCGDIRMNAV
Transporter, sequence (Q63380 whole entry): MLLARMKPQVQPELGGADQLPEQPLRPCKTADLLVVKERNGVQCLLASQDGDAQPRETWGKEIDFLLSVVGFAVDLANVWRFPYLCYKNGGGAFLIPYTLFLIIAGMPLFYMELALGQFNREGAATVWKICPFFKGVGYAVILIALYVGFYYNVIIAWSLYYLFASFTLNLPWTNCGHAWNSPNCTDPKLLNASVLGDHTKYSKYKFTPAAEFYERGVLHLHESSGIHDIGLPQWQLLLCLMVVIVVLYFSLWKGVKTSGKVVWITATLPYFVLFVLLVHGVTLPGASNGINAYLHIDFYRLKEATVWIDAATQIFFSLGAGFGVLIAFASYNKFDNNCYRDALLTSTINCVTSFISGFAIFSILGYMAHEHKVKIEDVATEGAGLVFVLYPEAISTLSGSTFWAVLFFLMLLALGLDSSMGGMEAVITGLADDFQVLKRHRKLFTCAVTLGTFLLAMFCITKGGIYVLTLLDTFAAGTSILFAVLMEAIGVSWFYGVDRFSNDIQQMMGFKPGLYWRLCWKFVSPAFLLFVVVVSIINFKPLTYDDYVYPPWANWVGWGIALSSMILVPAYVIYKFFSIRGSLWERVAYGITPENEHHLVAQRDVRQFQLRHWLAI

As usually defined, the IC50 is the midpoint of a concentration-inhibition curve. `c1ccc(-c2ccc(C34CNCC3C4)cc2)cc1` (stereo not given): the half-maximal inhibitory concentration (IC50) was found to be 2300 nM in data set [1], 160 nM in data set [2] and 360 nM against Transporter.
Take `Fc1ccc2sc([C@]34CNC[C@H]3C4)cc2c1`: the IC50 turned out to be 420 nM in data set [1], 33 nM in data set [2] and 67 nM at Transporter.
As for `C[C@H]1NC[C@@H]2C[C@@]21c1cccs1` (relative stereo), the values for the IC50 (in data set [1]; in data set [2]; at Transporter) were 8900 nM, 5800 nM and 150 nM, respectively.
In the case of `Clc1cc(Cl)c(C23CNCC2C3)s1` (stereo not given), the IC50 in data set [1] was greater than 10000 nM; in data set [2], 4200 nM; against Transporter, 5300 nM.
For `Brc1ccc([C@@]23CNC[C@@H]2C3)s1`, the results for the IC50 (in data set [1]; in data set [2]; at Transporter) were 8200 nM, 380 nM and 340 nM, respectively.
The corresponding values for `O=C1NCC2CC12c1cccs1` (stereo not given) are greater than 10000 nM, greater than 10000 nM and greater than 10000 nM.
As for `C[C@H]1NC[C@@]2(c3cccs3)C[C@@H]12` (relative stereo), the IC50 in data set [1] came to 3400 nM; in data set [2] it was 7600 nM; against Transporter, 320 nM.
The corresponding values for `FC(F)(F)c1ccc(C23CNCC2C3)s1` (stereo not given) are greater than 10000 nM, 190 nM and 3100 nM.
In the case of `c1ccc2c(C34CNCC3C4)csc2c1` (stereo not given), the IC50 in data set [1] came out at 780 nM; in data set [2], 73 nM; against Transporter it was 220 nM.
In the case of `c1ccc([C@@H]2[C@H]3CNC[C@]32c2ccccc2)cc1`, the IC50 in data set [1] amounted to 8700 nM; in data set [2], 240 nM; against Transporter, 120 nM.
On the same counts, the results for `FC12CNCC1(c1ccccc1)C2` (stereo not given) are greater than 10000 nM, 2900 nM and 1800 nM.
Take `c1cc2c(cc1[C@@]13CNC[C@@H]1C3)CCC2`: the IC50 in data set [1] was greater than 10000 nM; in data set [2], 97 nM; on Transporter it was 2000 nM.
On the same counts, the results for `c1ccc2sc(C34CNCC3C4)cc2c1` (stereo not given) are 180 nM, 71 nM and 53 nM.
Turning to `Fc1ccc([C@]23CNC[C@H]2C3)s1`, the IC50 was greater than 10000 nM in data set [1], 8100 nM in data set [2] and 470 nM on Transporter.
As for `c1ccc2oc(C34CNCC3C4)cc2c1` (stereo not given), the IC50 in data set [1] is 330 nM; in data set [2] it was 140 nM; on Transporter it was 48 nM.
`Clc1ccc([C@]23CNC[C@H]2C3)s1`: the IC50 in data set [1] was 1500 nM; in data set [2] it was 81 nM; on Transporter, 77 nM.
A word on the efflux ratio: it is the permeability from basolateral to apical divided by that in the opposite direction, in the common usage. Usually Papp stands for a coefficient for how fast a substance crosses the barrier. For the molecule `c1csc([C@]23CNC[C@H]2C3)c1`, the results for the IC50 (in data set [1]; in data set [2]; at Transporter) were 2400 nM, 1900 nM and 92 nM, respectively. For the same molecule, the Activity in the data set with Mus musculus [3] is given as 40%. Also, in data set [4], the efflux ratio was 0.7. In data set [5], the Papp came out at 17.6 ×10⁻⁶ cm/s.
As for `Cc1csc(C23CNCC2C3)c1` (stereo not given), the IC50 was greater than 10000 nM in data set [1], greater than 10000 nM in data set [2] and 6800 nM at Transporter.
For the molecule `Clc1ccc(C23CNCC2C3)s1` (stereo not given), the results for the 50% inhibitory concentration (IC50) (in data set [1]; in data set [2]; on Transporter) were 3300 nM, 190 nM and 130 nM, respectively.
As for `C[C@@H]1NC[C@@]2(c3cccs3)C[C@@H]12` (relative stereo), the IC50 in data set [1] worked out at 9500 nM; in data set [2] it was 6000 nM; against Transporter, 560 nM.
With `CN1CC2CC2(c2cccs2)C1` (stereo not given), the IC50 was greater than 10000 nM in data set [1], 6300 nM in data set [2] and 1600 nM against Transporter.
The corresponding values for `Clc1ccc([C@@]23CNC[C@@H]2[C@H]3c2ccccc2)cc1Cl` (relative stereo) are 360 nM, 350 nM and 34 nM.
In the case of `c1cc2c(cc1C13CNCC1C3)OCO2` (stereo not given), the IC50 in data set [1] is greater than 10000 nM; in data set [2], 1500 nM; at Transporter it was 3500 nM.
Consider `c1cc2c(cc1[C@@]13CNC[C@@H]1C3)CCO2`, for which the figures for the IC50 (in data set [1]; in data set [2]; against Transporter) were 9100 nM, 610 nM and 4800 nM, respectively.
As for `c1csc(C23CNCC2C3)c1` (stereo not given), the IC50 in data set [1] is 7500 nM; in data set [2] it was 4500 nM; against Transporter it was 130 nM.
Regarding `CCOc1ccccc1O[C@@H](c1ccccc1)[C@@H]1CNCCO1`, the result in the data set with Mus musculus [6] was inactive.
In the case of `c1ccc2cc(C34CNCC3C4)ccc2c1` (stereo not given), the IC50 is 190 nM in data set [1], 50 nM in data set [2] and 36 nM on Transporter.
Consider `Brc1ccc(C23CNCC2C3)s1` (stereo not given), for which the 50% inhibitory concentration (IC50) in data set [1] is 2400 nM; in data set [2], 140 nM; on Transporter, 190 nM.
As to `c1cnc2ccc(C34CNCC3C4)cc2c1` (stereo not given), the IC50 in data set [1] stood at 3900 nM; in data set [2] it was 640 nM; against Transporter, 1400 nM.
`CC1(C)C2CNCC21c1ccccc1` (stereo not given): the IC50 is greater than 10000 nM in data set [1], 1800 nM in data set [2] and 7200 nM against Transporter.
The corresponding values for `C[C@H]1[C@H]2CNC[C@]21c1ccc(Cl)c(Cl)c1` (relative stereo) are 500 nM, 200 nM and 500 nM.
For `c1csc([C@@]23CNC[C@@H]2C3)c1`, the IC50 in data set [1] was 6200 nM; in data set [2], 4900 nM; against Transporter, 150 nM.
With `Clc1ccc([C@@]23CNC[C@@H]2C3)s1`, the IC50 was found to be 2500 nM in data set [1], 1300 nM in data set [2] and 590 nM against Transporter.
`C[C@@H]1[C@H]2CNC[C@@]12c1ccc(Cl)c(Cl)c1` (relative stereo): the IC50 in data set [1] stood at 400 nM; in data set [2], 190 nM; against Transporter, 29 nM.
The corresponding values for `c1ccc(C23CNCC2C3)cc1` (stereo not given) are 2700 nM, 5200 nM and 350 nM.
On to `c1cc([C@@]23CNC[C@@H]2C3)cs1`, for which the IC50 was determined as 8200 nM in data set [1], 6800 nM in data set [2] and 300 nM at Transporter.
Consider `Cc1ccc(C23CNCC2C3)cc1` (stereo not given) [BICIFADINE], for which the Activity with Mus musculus [6] is listed as 89%.
